Results as given in US20120065199A1, “SUBSTITUTED QUINOLINES FOR USE AS VEGF INHIBITORS” (CLANOTECH AB, priority 2009, published 2012).

Assays:
[1] = tested on: PAE cells expressing VEGFR2; assay: Chemotaxis assay (modified Boyden chamber), PAE/VEGFR-2 toward VEGF-A; assay type: cell-based, porcine; details: VEGF-A as chemo-attractant, absence of serum; for inhibition at 10 µM: Sus scrofa, PAE, 10 μM compound, read-out: Chemotaxis: VEGFR-2 inhibition of cell migration (%) at 10 μM compound concentration
Method: (§1) Additionally, the effect of the compounds was tested in this capacity of influencing chemotaxis. The test compounds were tested in porcine aorta endothelial (PAE) cells expressing VEGFR2 and VEGFR3 (PAE/VEGFR-2 and PAE/VEGFR-3). The method used is a modified Boyden chamber assay. The migration of the PAE cells expressing VEGFR2 and VEGFR3 receptors toward VEGF-A and VEGF-C respectively used as chemo-attractant was studied through micropore polycarbonate filter and was scored in the absence of serum. The assay was performed in the presence of compounds at 10 μM.
(§2) In Table 1, data from both the cell shape assay and the chemotaxis assay are shown. Thus, under “Cell Shape: PAE/VEGFR-2 with VEGF antagonist conc. (μM)” and “Cell Shape: PAE/VEGFR-3 with VEGF antagonist conc. (μM)” the concentration of the indicated inventive compound that gave restitution of cell morphology in the cell shape assay is shown. Data under “Chemotaxis: VEGFR-2% inhibition of cell migration” and “Chemotaxis: VEGFR-3% inhibition of cell migration” show the percentage inhibition of PAE cells expressing VEGFR-2 or 3 in the presence of 10 μM of the indicated inventive compound.

PAE/VEGFR-3 cells = assay: Cell shape assay, PAE/VEGFR-3 cells with VEGF-C; assay type: cell-based, porcine; details: VEGF-C induced cell morphology, tested at 10, 50 and 100 μM, No effect = no morphological changes up to 100 μM; for minimal effective concentration: Sus scrofa, read-out: Cell Shape: PAE/VEGFR-3 with VEGF antagonist conc. (μM) that gives inhibition
Method: (§3) One of the used assays comprised a culture of PAE/VEGFR-2 and PAE/VEGFR3 cells. Morphological changes of the cells were recorded microscopically after addition of VEGF-A and VEGF-C respectively, followed by the test compound at a final concentration up to 100 μM. Growth inhibitions of the PAE/VEGFR-2 cells were detected in the presence of the compound of Example 1 according to the invention at 10 μM or lower. Furthermore, the inventive compounds were tested in PAE/VEGFR-3 cells and morphological changes of the cells were recorded microscopically after addition of the VEGF-C, followed by the test compound at a final concentration up to 100 μM. Growth inhibitions of the PAE/VEGFR-3 cells were detected in the presence of several of Examples according to the invention. The compounds were tested at 10, 50 and 100 μM. The effect of the test compounds in Table 1 is expressed as concentration of compound that inhibits the cell morphology induced by VEGF A and VEGF C. No effect means that no morphological changes were seen up to 100 μM compound concentrations.
as §2

PAE/VEGFR-2 cells = assay: Cell shape assay, PAE/VEGFR-2 cells with VEGF-A; assay type: cell-based, porcine
Method: as §3, §2

[2] = tested on: PAE cells expressing VEGFR3; assay: Chemotaxis assay (modified Boyden chamber), PAE/VEGFR-3 toward VEGF-C; assay type: cell-based, porcine; details: Sus scrofa, 10 μM compound, VEGF-C as chemo-attractant, absence of serum, read-out: Chemotaxis: VEGFR-3 inhibition of cell migration (%) at 10 μM compound concentration
Method: as §1, §2

[3] = tested on: T241 wt mouse fibrosarcoma tumor cells; assay: Tumor synograft model; assay type: in vivo, C57B1 mice; details: oral administration 25 mg/kg/day for 10 days, subcutaneous T241 tumors in mice, compared with vehicle
Method: FIG. 1 is a plot of the tumor volume (mL) in mice having received subcutaneously implanted T241 wt mouse fibrosarcoma tumor cells, as a function of days of therapy by oral administration at 25 mg/kg/day of the compound of Example 1 of the invention. This is compared to administration of vehicle only.
Female 6-week-old C57B1 mice were used for tumor studies. […] T241 wt mouse fibrosarcoma tumor cells growing in logarithmic phase were harvested and resuspended in media, and a single cell solution in a volume of 100 μL was implanted subcutaneously at the right flank of each animal. 6 Mice were used in the treated groups and 6 mice were used in the control groups. Systemic treatment by oral administration injections with either 50 μl of vehicle or the inventive compound (the compound of Example 1) (25 mg/kg/day) was begun at day at day 0 (zero). The inventive compound was administrated for 10 days. Visible tumors were present day 5-10 after implantation. Primary tumors were measured with digital calipers on the days indicated. Tumor volumes were calculated according to the formula: Length×width^2×0.52 as reported. […] It takes a significant number of days for the treated animals to reach the same tumor volume as the vehicle treated animals.

[4] = VEGF-A induced cell morphology, tested at 10, 50 and 100 μM, No effect = no morphological changes up to 100 μM

Structure (SMILES) | inhibition at 10 µM [1] | Cell Shape: PAE/VEGFR-3 with VEGF antagonist conc. (μM) that gives inhibition (PAE/VEGFR-3 cells) | Cell Shape: PAE/VEGFR-2 with VEGF antagonist conc. (μM) that gives inhibition (PAE/VEGFR-2 cells; [4]) | inhibition at 10 µM [2] | minimal effective concentration (PAE/VEGFR-3 cells) | Chemotaxis: VEGFR-2 inhibition of cell migration (%) at 10 μM compound concentration [1] | minimal effective concentration (PAE/VEGFR-2 cells; Sus scrofa, VEGF-A induced cell morphology, tested at 10, 50 and 100 μM, No effect = no morphological changes up to 100 μM, read-out: Cell Shape: PAE/VEGFR-2 with VEGF antagonist conc. (μM) that gives inhibition) | Concentration at which growth inhibitions of the PAE/VEGFR-2 cells were detected (PAE/VEGFR-2 cells; after addition of VEGF-A, final concentration up to 100 μM) | Tumor volume, effectiveness in the animal model (FIG. 1) [3]
CNC(=O)c1ccc2ncc(C(=O)OCN(C)C(=O)c3ccccc3)c(Nc3ccc(OC)cc3)c2c1 [Example 3, (N-methylbenzamido)methyl 4-(4-methoxyphenylamino)-6-(methylcarbamoyl)-quinoline-3-carboxylate] | 28% | No effect | No effect | 36% | – | – | – | – | –
CNC(=O)c1ccc2ncc(C(=O)OCCN3CCOCC3)c(Nc3ccc(OC)cc3)c2c1 [Example 11, 2-Morpholinoethyl 4-[(4-methoxyphenyl)amino]-6-(methylcarbamoyl)-quinoline-3-carboxylate] | 10% | – | No effect | 83% | 10 µM | – | – | – | –
CNC(=O)c1ccc2ncc(C(=O)OCN(c3ccccc3)S(C)(=O)=O)c(Nc3ccc(OC)cc3)c2c1 [Example 8, (Methylsulfonyl(phenyl)amino)methyl 4-[(4-methoxyphenyl)amino]-6-(methylcarbamoyl)quinoline-3-carboxylate] | – | – | No effect | 18% | 100 µM | No effect | – | – | –
CNC(=O)c1ccc2ncc(C(=O)OC(C)C(=O)O)c(Nc3ccc(OC)cc3)c2c1 (stereo not shown) [Example 9, 2-[4-[(4-Methoxyphenyl)amino]-6-(methylcarbamoyl)quinoline-3-carbonyl]oxypropanoic Acid] | 38% | No effect | No effect | 52% | – | – | – | – | –
CNC(=O)c1ccc2ncc(C(=O)OCOC(C)=O)c(Nc3ccc(OC)cc3)c2c1 [Example 7, Acetoxymethyl 4-[(4-methoxyphenyl)amino]-6-(methylcarbamoyl)quinoline-3-carboxylate] | – | – | No effect | 25% | 50 µM | No effect | – | – | –
CNC(=O)c1ccc2ncc(C(=O)OC(C)C(=O)OC)c(Nc3ccc(OC)cc3)c2c1 (stereo not shown) [Example 6, (2-Methoxy-1-methyl-2-oxo-ethyl) 4-[(4-methoxyphenyl)amino]-6-(methylcarbamoyl)quinoline-3-carboxylate] | 23% | – | No effect | 69% | 50 µM | – | – | – | –
CNC(=O)c1ccc2ncc(C(=O)OCCN(C)C)c(Nc3ccc(OC)cc3)c2c1 [Example 4, 2-(dimethylamino)ethyl 4-(4-methoxyphenylamino)-6-(methylcarbamoyl)-quinoline-3-carboxylate] | 21% | – | No effect | 63% | 100 µM | – | – | – | –
CNC(=O)c1ccc2ncc(C(=O)OCCn3ccnc3)c(Nc3ccc(OC)cc3)c2c1 [Example 10, 2-Imidazol-1-ylethyl 4-[(4-methoxyphenyl)amino]-6-(methylcarbamoyl)-quinoline-3-carboxylate] | 32% | – | No effect | 53% | 10 µM | – | – | – | –
CNC(=O)c1ccc2ncc(C(=O)OCn3ccnc3)c(Nc3ccc(F)cc3)c2c1 [Example 14, 4-(4-Fluoro-phenylamino)-6-methylcarbamoyl-quinoline-3-carboxylic acid imidazol-1-yl-methylester] | – | – | No effect | 30% | 50 µM | No effect | – | – | –
CNC(=O)c1ccc2ncc(C(=O)OCCN3CCOCC3)c(Nc3ccc(F)cc3)c2c1 [Example 15, 2-Morpholinoethyl 4-[(4-fluorophenyl)amino]-6-(methylcarbamoyl)quinoline-3-carboxylate] | 31% | – | No effect | 59% | 100 µM | – | – | – | –
CNC(=O)c1ccc2ncc(C(=O)OCCn3ccnc3)c(Nc3ccc(F)cc3)c2c1 [Example 13, 4-(4-Fluoro-phenylamino)-6-methylcarbamoyl-quinoline-3-carboxylic acid 2-imidazol-1-yl-ethylester] | – | – | No effect | 27% | 50 µM | No effect | – | – | –
CNC(=O)c1ccc2ncc(C(=O)OCN(C)C(=O)OC)c(Nc3ccc(OC)cc3)c2c1 [Example 2, (Methoxycarbonyl(methyl)amino)methyl 4-(4-methoxyphenylamino)-6-(methylcarbamoyl)quinoline-3-carboxylate] | 39% | No effect | No effect | 45% | – | – | – | – | –
CNC(=O)c1ccc2ncc(C(=O)OCn3ccnc3)c(Nc3ccc(OC)cc3)c2c1 [Example 1, (1H-imidazol-1-yl)methyl 4-(4-methoxyphenylamino)-6-(methylcarbamoyl)-quinoline-3-carboxylate] | 52% | – | – | 53% | – | – | 10 µM | ≤ 10 µM | convincing results for its effectiveness
CNC(=O)c1ccc2ncc(C(=O)OCC(=O)N(C)C)c(Nc3ccc(OC)cc3)c2c1 [Example 5, 2-(dimethylamino)-2-oxoethyl-4-(4-methoxyphenylamino)-6-(methyl-carbamoyl)quinoline-3-carboxylate] | 2% | – | No effect | 64% | 100 µM | – | – | – | –
CNC(=O)c1ccc2ncc(C(=O)OCc3oc(=O)oc3C)c(Nc3ccc(OC)cc3)c2c1 [Example 12, (5-Methyl-2-oxo-1,3-dioxol-4-yl)methyl 4-[(4-methoxyphenyl)amino]-6-(methylcarbamoyl)quinoline-3-carboxylate] | – | – | No effect | 46% | 100 µM | No effect | – | – | –
